# Experimental data published in ChEMBL document CHEMBL1649156, “Antianaerobic activity of sulopenem compared to six other agents” (2009).
# What was measured:
# Format in all cases: functional
# Prevotella baroniae = assay: Antimicrobial activity in Prevotella baroniae by CLSI agar dilution method in presence of clavulanate; conditions: Segatella baroniae
# Hoylesella oralis = assay: Antimicrobial activity in Prevotella oralis group by CLSI agar dilution method in presence of clavulanate
# Prevotella veroralis = assay: Antimicrobial activity in Prevotella veroralis by CLSI agar dilution method in presence of clavulanate
# Prevotella bergensis = assay: Antimicrobial activity in Prevotella bergensis by CLSI agar dilution method in presence of clavulanate; conditions: Hallella bergensis
# Prevotella salivae = assay: Antimicrobial activity in Prevotella salivae by CLSI agar dilution method in presence of clavulanate; conditions: Segatella salivae
# Hoylesella loescheii = assay: Antimicrobial activity in Prevotella loescheii by CLSI agar dilution method in presence of clavulanate
# Prevotella sp. = assay: Antimicrobial activity in Prevotella sp.by CLSI agar dilution method in presence of clavulanate
# [1] = tested on: Porphyromonas asaccharolytica; assay: Antimicrobial activity in Porphyromonas asaccharolytica by CLSI agar dilution method in presence of clavulanate
# Fusobacterium nucleatum = assay: Antimicrobial activity in Fusobacterium nucleatum by CLSI agar dilution method in presence of clavulanate
# [2] = tested on: Fusobacterium necrophorum; assay: Antimicrobial activity in Fusobacterium necrophorum by CLSI agar dilution method in presence of clavulanate
# Fusobacterium mortiferum = assay: Antimicrobial activity in Fusobacterium mortiferum by CLSI agar dilution method in presence of clavulanate
# Fusobacterium varium = assay: Antimicrobial activity in Fusobacterium varium by CLSI agar dilution method in presence of clavulanate
# Finegoldia magna = assay: Antimicrobial activity in Finegoldia magna by CLSI agar dilution method in presence of clavulanate
# Parvimonas micra = assay: Antimicrobial activity in Micromonas micros by CLSI agar dilution method in presence of clavulanate
# [3] = tested on: Peptostreptococcus anaerobius; assay: Antimicrobial activity in Peptostreptococcus anaerobius by CLSI agar dilution method in presence of clavulanate
# [4] = tested on: Peptoniphilus asaccharolyticus; assay: Antimicrobial activity in Peptoniphilus asaccharolyticus by CLSI agar dilution method in presence of clavulanate
# Anaerococcus tetradius = assay: Antimicrobial activity in Anaerococcus tetradius by CLSI agar dilution method in presence of clavulanate
# Anaerococcus prevotii = assay: Antimicrobial activity in Anaerococcus prevotii by CLSI agar dilution method in presence of clavulanate
# Lactobacillus = assay: Antimicrobial activity in Lactobacillus by CLSI agar dilution method in presence of clavulanate
# Bifidobacterium = assay: Antimicrobial activity in Bifidobacterium by CLSI agar dilution method in presence of clavulanate
# Cutibacterium acnes = assay: Antimicrobial activity in Propionibacterium acnes by CLSI agar dilution method in presence of clavulanate
# Actinomyces = assay: Antimicrobial activity in Actinomyces by CLSI agar dilution method in presence of clavulanate
# Eggerthella lenta = assay: Antimicrobial activity in Eggerthella lenta by CLSI agar dilution method in presence of clavulanate
# Clostridium perfringens = assay: Antimicrobial activity in Clostridium perfringens by CLSI agar dilution method in presence of clavulanate
# Clostridioides difficile = assay: Antimicrobial activity in Clostridium difficile by CLSI agar dilution method in presence of clavulanate
# Clostridium sp. = assay: Antimicrobial activity in Clostridium sp. by CLSI agar dilution method in presence of clavulanate
# Clostridium tertium = assay: Antimicrobial activity in Clostridium tertium by CLSI agar dilution method in presence of clavulanate
# Thomasclavelia ramosa = assay: Antimicrobial activity in Clostridium ramosum by CLSI agar dilution method in presence of clavulanate
# Clostridium cadaveris = assay: Antimicrobial activity in Clostridium cadaveris by CLSI agar dilution method in presence of clavulanate
# [5] = tested on: Paraclostridium bifermentans; assay: Antimicrobial activity in Clostridium bifermentans by CLSI agar dilution method in presence of clavulanate
# [Clostridium] innocuum = Antimicrobial activity in Clostridium innocuum by CLSI agar dilution method in presence of clavulanate
# [6] = tested on: Paeniclostridium sordellii; assay: Antimicrobial activity in Clostridium sordellii by CLSI agar dilution method in presence of clavulanate; conditions: Paraclostridium sordellii
# Clostridium butyricum = assay: Antimicrobial activity in Clostridium butyricum by CLSI agar dilution method in presence of clavulanate
# [7] = tested on: Enterocloster clostridioformis; assay: Antimicrobial activity in Clostridium clostridioforme by CLSI agar dilution method in presence of clavulanate
# Bacteroides fragilis = assay: Antimicrobial activity in Bacteroides fragilis by CLSI agar dilution method in presence of clavulanate
# [8] = tested on: Bacteroides thetaiotaomicron; assay: Antimicrobial activity in Bacteroides thetaiotaomicron by CLSI agar dilution method in presence of clavulanate
# Bacteroides ovatus = assay: Antimicrobial activity in Bacteroides ovatus by CLSI agar dilution method in presence of clavulanate
# Phocaeicola vulgatus = assay: Antimicrobial activity in Bacteroides vulgatus by CLSI agar dilution method in presence of clavulanate
# [9] = tested on: Parabacteroides distasonis; assay: Antimicrobial activity in Bacteroides distasonis by CLSI agar dilution method in presence of clavulanate
# Bacteroides uniformis = assay: Antimicrobial activity in Bacteroides uniformis by CLSI agar dilution method in presence of clavulanate
# Bacteroides stercoris = assay: Antimicrobial activity in Bacteroides stercoris by CLSI agar dilution method in presence of clavulanate
# Prevotella bivia = assay: Antimicrobial activity in Prevotella bivia by CLSI agar dilution method in presence of clavulanate
# Prevotella buccae = assay: Antimicrobial activity in Prevotella buccae by CLSI agar dilution method in presence of clavulanate; conditions: Segatella buccae
# [10] = tested on: Prevotella melaninogenica; assay: Antimicrobial activity in Prevotella melaninogenica by CLSI agar dilution method in presence of clavulanate
# Prevotella denticola = assay: Antimicrobial activity in Prevotella denticola by CLSI agar dilution method in presence of clavulanate
# Prevotella intermedia = assay: Antimicrobial activity in Prevotella intermedia by CLSI agar dilution method in presence of clavulanate
# Prevotella nigrescens = assay: Antimicrobial activity in Prevotella nigrescens by CLSI agar dilution method in presence of clavulanate
# Prevotella corporis = assay: Antimicrobial activity in Prevotella corporis by CLSI agar dilution method in presence of clavulanate
# Prevotella disiens = assay: Antimicrobial activity in Prevotella disiens by CLSI agar dilution method in presence of clavulanate
# Tissierella praeacuta = assay: Antimicrobial activity in Clostridium hastiforme by CLSI agar dilution method in presence of clavulanate
# Porphyromonas gingivalis = assay: Antimicrobial activity in Porphyromonas gingivalis by CLSI agar dilution method in presence of clavulanate
smiles,measurement,setting,value
CC1(C)S[C@@H]2[C@H](NC(=O)[C@H](N)c3ccc(O)cc3)C(=O)N2[C@H]1C(=O)O [AMOXICILLIN],MIC,Prevotella baroniae,≤ 0.125 µg/mL
same,MIC,Hoylesella oralis,≤ 0.125 µg/mL
same,MIC,Prevotella veroralis,≤ 0.125 µg/mL
same,MIC,Prevotella bergensis,0.5 µg/mL
same,MIC,Prevotella salivae,≤ 0.125 µg/mL
same,MIC,Hoylesella loescheii,0.25 µg/mL
same,MIC,Prevotella sp.,≤ 0.125 µg/mL
same,MIC,[1],≤ 0.125 µg/mL
same,MIC,Fusobacterium nucleatum,≤ 0.125 µg/mL
same,MIC50,Fusobacterium nucleatum,≤ 0.125 µg/mL
same,MIC90,Fusobacterium nucleatum,≤ 0.125 µg/mL
same,MIC,[2],≤ 0.125 µg/mL
same,MIC50,[2],≤ 0.125 µg/mL
same,MIC50,Fusobacterium mortiferum,1 µg/mL
same,MIC90,Fusobacterium mortiferum,32 µg/mL
same,MIC50,Fusobacterium varium,2 µg/mL
same,MIC90,Fusobacterium varium,2 µg/mL
same,MIC50,Finegoldia magna,0.25 µg/mL
same,MIC90,Finegoldia magna,0.25 µg/mL
same,MIC,Parvimonas micra,≤ 0.125 µg/mL
same,MIC50,Parvimonas micra,≤ 0.125 µg/mL
same,MIC90,Parvimonas micra,0.5 µg/mL
same,MIC50,[3],0.25 µg/mL
same,MIC90,[3],32 µg/mL
same,MIC,[4],≤ 0.125 µg/mL
same,MIC50,[4],≤ 0.125 µg/mL
same,MIC,Anaerococcus tetradius,≤ 0.125 µg/mL
same,MIC50,Anaerococcus tetradius,≤ 0.125 µg/mL
same,MIC90,Anaerococcus tetradius,≤ 0.125 µg/mL
same,MIC,Anaerococcus prevotii,≤ 0.125 µg/mL
same,MIC50,Lactobacillus,1 µg/mL
same,MIC90,Lactobacillus,1 µg/mL
same,MIC,Bifidobacterium,≤ 0.125 µg/mL
same,MIC50,Bifidobacterium,≤ 0.125 µg/mL
same,MIC90,Bifidobacterium,0.25 µg/mL
same,MIC,Cutibacterium acnes,≤ 0.125 µg/mL
same,MIC50,Cutibacterium acnes,≤ 0.125 µg/mL
same,MIC90,Cutibacterium acnes,0.25 µg/mL
same,MIC,Actinomyces,≤ 0.125 µg/mL
same,MIC50,Actinomyces,0.25 µg/mL
same,MIC50,Eggerthella lenta,1 µg/mL
same,MIC90,Eggerthella lenta,1 µg/mL
same,MIC,Clostridium perfringens,≤ 0.125 µg/mL
same,MIC50,Clostridium perfringens,≤ 0.125 µg/mL
same,MIC90,Clostridium perfringens,≤ 0.125 µg/mL
same,MIC50,Clostridioides difficile,1 µg/mL
same,MIC90,Clostridioides difficile,2 µg/mL
same,MIC50,Clostridium sp.,0.5 µg/mL
same,MIC90,Clostridium sp.,0.5 µg/mL
same,MIC,Clostridium tertium,0.5 µg/mL
same,MIC50,Clostridium tertium,0.5 µg/mL
same,MIC,Thomasclavelia ramosa,≤ 0.125 µg/mL
same,MIC,Clostridium cadaveris,≤ 0.125 µg/mL
same,MIC,[5],0.25 µg/mL
same,MIC,[Clostridium] innocuum,≤ 0.125 µg/mL
same,MIC,[6],≤ 0.125 µg/mL
same,MIC,Clostridium butyricum,1 µg/mL
same,MIC,[7],1 µg/mL
same,MIC50,Bacteroides fragilis,0.5 µg/mL
same,MIC90,Bacteroides fragilis,2 µg/mL
same,MIC50,[8],1 µg/mL
same,MIC90,[8],4 µg/mL
same,MIC,Bacteroides ovatus,0.5 µg/mL
same,MIC50,Bacteroides ovatus,0.5 µg/mL
same,MIC90,Bacteroides ovatus,2 µg/mL
same,MIC50,Phocaeicola vulgatus,1 µg/mL
same,MIC90,Phocaeicola vulgatus,8 µg/mL
same,MIC50,[9],4 µg/mL
same,MIC90,[9],16 µg/mL
same,MIC,Bacteroides uniformis,0.5 µg/mL
same,MIC50,Bacteroides uniformis,0.5 µg/mL
same,MIC,Bacteroides stercoris,0.5 µg/mL
same,MIC50,Bacteroides stercoris,1 µg/mL
same,MIC50,Prevotella bivia,0.5 µg/mL
same,MIC90,Prevotella bivia,4 µg/mL
same,MIC,Prevotella buccae,≤ 0.125 µg/mL
same,MIC50,Prevotella buccae,≤ 0.125 µg/mL
same,MIC90,Prevotella buccae,1 µg/mL
same,MIC50,[10],0.25 µg/mL
same,MIC90,[10],2 µg/mL
same,MIC50,Prevotella denticola,0.25 µg/mL
same,MIC90,Prevotella denticola,2 µg/mL
same,MIC,Prevotella intermedia,≤ 0.125 µg/mL
same,MIC50,Prevotella intermedia,≤ 0.125 µg/mL
same,MIC90,Prevotella intermedia,0.5 µg/mL
same,MIC,Prevotella nigrescens,≤ 0.125 µg/mL
same,MIC50,Prevotella nigrescens,≤ 0.125 µg/mL
same,MIC90,Prevotella nigrescens,0.5 µg/mL
same,MIC,Prevotella corporis,≤ 0.125 µg/mL
same,MIC50,Prevotella corporis,≤ 0.125 µg/mL
same,MIC,Prevotella disiens,≤ 0.125 µg/mL
same,MIC50,Prevotella disiens,0.25 µg/mL
same,MIC,Tissierella praeacuta,1 µg/mL
same,MIC,Porphyromonas gingivalis,≤ 0.125 µg/mL
